Consider six molecules from BindingDB's records for doi:10.1021/jm991151j (Smithkline Beecham Pharmaceuticals, 2000).

Counter-ions that a name gives are not always drawn.

Test [1] concerns the target T1, 5-hydroxytryptamine receptor 1F (Homo sapiens, UniProt P30939).
T1 sequence (P30939 whole entry): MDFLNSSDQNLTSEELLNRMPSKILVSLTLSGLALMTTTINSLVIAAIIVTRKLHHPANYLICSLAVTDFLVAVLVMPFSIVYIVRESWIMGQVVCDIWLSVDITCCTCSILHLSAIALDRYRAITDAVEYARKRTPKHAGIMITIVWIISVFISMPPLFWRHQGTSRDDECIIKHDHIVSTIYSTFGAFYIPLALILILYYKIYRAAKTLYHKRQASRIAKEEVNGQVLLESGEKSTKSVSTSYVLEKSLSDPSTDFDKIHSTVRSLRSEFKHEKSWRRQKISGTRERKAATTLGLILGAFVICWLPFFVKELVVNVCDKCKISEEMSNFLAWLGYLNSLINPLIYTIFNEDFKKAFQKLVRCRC

The target of test [2] is 5-hydroxytryptamine receptor 4 (Homo sapiens, UniProt Q13639).
Chain of 5-hydroxytryptamine receptor 4 (Q13639 whole entry): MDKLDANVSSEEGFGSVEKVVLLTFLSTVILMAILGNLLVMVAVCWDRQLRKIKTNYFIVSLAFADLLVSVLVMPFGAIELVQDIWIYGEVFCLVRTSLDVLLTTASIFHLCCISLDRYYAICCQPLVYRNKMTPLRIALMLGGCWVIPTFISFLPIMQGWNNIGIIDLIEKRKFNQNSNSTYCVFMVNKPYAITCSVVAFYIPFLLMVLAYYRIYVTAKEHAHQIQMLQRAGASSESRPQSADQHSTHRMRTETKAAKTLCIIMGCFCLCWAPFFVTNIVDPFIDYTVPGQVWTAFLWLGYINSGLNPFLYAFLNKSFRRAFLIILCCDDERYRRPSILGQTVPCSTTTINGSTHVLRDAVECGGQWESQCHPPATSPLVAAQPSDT
Test [3] concerns the target 5-hydroxytryptamine receptor 1E (Homo sapiens, UniProt P28566).
Test [4] has as its target T2, 5-hydroxytryptamine receptor 2C (Homo sapiens, UniProt P28335).
T2 sequence (P28335 whole entry): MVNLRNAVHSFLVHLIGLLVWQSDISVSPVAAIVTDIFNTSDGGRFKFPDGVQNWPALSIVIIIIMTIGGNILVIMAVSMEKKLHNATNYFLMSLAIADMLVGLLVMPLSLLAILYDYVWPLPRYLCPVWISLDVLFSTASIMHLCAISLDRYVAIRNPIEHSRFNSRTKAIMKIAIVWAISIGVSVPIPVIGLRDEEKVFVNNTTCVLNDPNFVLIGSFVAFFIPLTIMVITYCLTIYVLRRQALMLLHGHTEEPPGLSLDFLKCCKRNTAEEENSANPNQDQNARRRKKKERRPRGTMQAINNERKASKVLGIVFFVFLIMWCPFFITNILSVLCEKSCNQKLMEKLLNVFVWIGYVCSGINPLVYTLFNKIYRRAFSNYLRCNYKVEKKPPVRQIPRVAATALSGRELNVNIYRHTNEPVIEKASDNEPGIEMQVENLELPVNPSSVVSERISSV

In test [5] the target is 5-hydroxytryptamine receptor 2B (Homo sapiens, UniProt P41595).
Chain of 5-hydroxytryptamine receptor 2B (P41595 whole entry): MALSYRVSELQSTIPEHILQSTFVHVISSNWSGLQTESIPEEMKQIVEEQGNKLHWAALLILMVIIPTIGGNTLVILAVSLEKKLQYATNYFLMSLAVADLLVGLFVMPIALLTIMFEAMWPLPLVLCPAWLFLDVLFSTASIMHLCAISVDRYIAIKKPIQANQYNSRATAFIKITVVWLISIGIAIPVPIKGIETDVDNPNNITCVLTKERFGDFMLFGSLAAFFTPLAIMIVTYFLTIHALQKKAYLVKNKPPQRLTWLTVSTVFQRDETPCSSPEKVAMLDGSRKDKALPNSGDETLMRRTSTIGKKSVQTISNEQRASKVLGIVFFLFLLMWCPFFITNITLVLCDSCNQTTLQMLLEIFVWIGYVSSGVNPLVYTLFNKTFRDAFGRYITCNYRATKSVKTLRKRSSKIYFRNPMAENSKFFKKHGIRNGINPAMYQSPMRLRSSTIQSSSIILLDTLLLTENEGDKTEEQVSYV
Test [6] deals with 5-hydroxytryptamine receptor 6 (Homo sapiens, UniProt P50406).
Chain of 5-hydroxytryptamine receptor 6 (P50406 whole entry): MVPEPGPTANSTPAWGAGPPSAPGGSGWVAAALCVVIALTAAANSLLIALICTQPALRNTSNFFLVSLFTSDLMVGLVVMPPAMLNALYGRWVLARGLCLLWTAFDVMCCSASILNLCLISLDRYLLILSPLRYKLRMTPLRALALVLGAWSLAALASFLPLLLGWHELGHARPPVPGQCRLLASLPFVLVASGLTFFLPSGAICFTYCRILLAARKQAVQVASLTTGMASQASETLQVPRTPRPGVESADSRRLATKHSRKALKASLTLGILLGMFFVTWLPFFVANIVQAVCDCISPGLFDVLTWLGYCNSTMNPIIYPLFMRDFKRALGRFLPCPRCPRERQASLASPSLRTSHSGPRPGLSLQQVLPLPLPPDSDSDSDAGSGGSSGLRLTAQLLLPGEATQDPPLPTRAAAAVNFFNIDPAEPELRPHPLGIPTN
In test [7] the target is T3, Alpha-1B adrenergic receptor (Homo sapiens, UniProt P35368).
T3 sequence (P35368 whole entry): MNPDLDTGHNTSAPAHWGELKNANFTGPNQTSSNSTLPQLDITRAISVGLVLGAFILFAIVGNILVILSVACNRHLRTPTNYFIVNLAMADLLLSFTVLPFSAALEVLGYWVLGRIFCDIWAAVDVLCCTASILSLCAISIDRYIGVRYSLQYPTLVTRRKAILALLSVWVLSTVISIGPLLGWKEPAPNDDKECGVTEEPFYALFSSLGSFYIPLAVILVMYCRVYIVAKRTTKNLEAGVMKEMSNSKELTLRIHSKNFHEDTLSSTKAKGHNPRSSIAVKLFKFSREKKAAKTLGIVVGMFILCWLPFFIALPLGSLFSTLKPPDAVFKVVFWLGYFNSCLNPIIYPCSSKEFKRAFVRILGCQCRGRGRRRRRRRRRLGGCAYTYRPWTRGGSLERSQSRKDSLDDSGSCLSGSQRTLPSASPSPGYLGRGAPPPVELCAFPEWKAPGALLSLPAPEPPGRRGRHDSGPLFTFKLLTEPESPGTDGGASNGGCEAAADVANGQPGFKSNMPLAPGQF

Chain of 5-hydroxytryptamine receptor 1E (P28566 whole entry): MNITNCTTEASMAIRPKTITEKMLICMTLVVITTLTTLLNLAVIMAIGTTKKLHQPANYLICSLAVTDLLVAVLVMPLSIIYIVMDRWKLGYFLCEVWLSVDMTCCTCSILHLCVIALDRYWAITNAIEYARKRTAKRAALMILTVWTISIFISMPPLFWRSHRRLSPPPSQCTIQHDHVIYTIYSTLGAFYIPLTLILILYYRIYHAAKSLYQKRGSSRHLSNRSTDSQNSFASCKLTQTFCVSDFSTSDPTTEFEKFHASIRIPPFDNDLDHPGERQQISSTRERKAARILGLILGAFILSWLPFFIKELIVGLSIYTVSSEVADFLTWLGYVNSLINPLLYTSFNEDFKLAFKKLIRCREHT

The term Ki denotes a dissociation constant, usually derived from enzyme kinetics or from competition with a known ligand. Read a high Ki as a looser hold on the target. On to `CC1CCN(CC[C@H]2CCCN2S(=O)(=O)c2ccc(Cl)c(Cl)c2)CC1` [(R)-1-(2-(1-(3,4-Dichloro-benzenesulfonyl)-pyrrolidin-2-yl)-ethyl)-4-methyl piperidine], for which the inhibition constant Ki in test [1] and in test [2] was 3.16 µM throughout.

Take `CC1CCN(CC[C@H]2CCCN2S(=O)(=O)c2cccc(Br)c2)CC1` [(R)-1-(2-(1-(3-bromo-benzenesulfonyl)-pyrrolidin-2-yl)-ethyl)-4-methyl piperidine]: the Ki in test [3] was 2.51 µM; in test [1] it was 5.01 µM; in test [2], 6.31 µM; in test [4], 5.01 µM; in test [5], 1.58 µM.

In test [6], `COc1cccc(S(=O)(=O)N2CCC[C@@H]2CCN2CCC(C)CC2)c1` [(R)-1-(2-(1-(3-methoxy-benzenesulfonyl)-pyrrolidin-2-yl)-ethyl-4-methylpiperidine] returned a Ki greater than 10 µM.

Consider `CC1CCN(CC[C@H]2CCCN2S(=O)(=O)c2cccc(O)c2)CC1` [(R)-3-(2-(2-(4-methylpiperidin-1-yl)ethyl)pyrrolidine-1-sulfonyl)phenol], for which the Ki in test [7] was greater than 10 µM; in test [1], 3.16 µM.

In the case of `CC1CCN(CC[C@H]2CCCN2S(=O)(=O)c2cccc3ccccc23)CC1` [(R)-4-Methyl-1-(2-(1-(naphthalene-1-sulfonyl)-pyrrolidin-2-yl)-ethyl)-piperidine(10)], the Ki in test [3] and in test [1] was greater than 10 µM each time.

In the case of `Cc1cccc(S(=O)(=O)N2CCC[C@@H]2CCN2CCC(C)CC2)c1` [(R)-4-Methyl-1-(2-(1-toluene-3-sulfonyl)-pyrrolidin-2-yl)-ethyl)-piperidine (Oxalate salt)], the Ki in test [3] is greater than 10 µM; in test [1], greater than 10 µM; in test [2], greater than 10 µM; in test [5] it was 2.51 µM.
